Experimental data reported in patent publication US20140213538A1, “LYSOPHOSPHATIDIC ACID RECEPTOR ANTAGONISTS” (InterMune, Inc., priority 2013, published 2014).

Columns and labels:
LPA1 = LPA1 (Homo sapiens, UniProt Q92633); test: LPA1 Migration Assay (Oris); format: cell-based; set-up: host or cells: primary fibroblasts (lung, dermal), HFL-1, 3T3 and CHO cells expressing LPA1R; settings: read-out: Cell Migration EC50
Description: LPA1 Migration Assay Migration of primary fibroblasts (including lung, dermal), HFL-1, 3T3 and CHO cells expressing LPA1R were monitored using the Oris™ assay (Platypus Technologies, Madison, Wis.). These cells were dye (Cell Tracker Green™) loaded and serum starved for 12-24 hrs. In response to chemoattractants such as LPA and serum, the cells migrated inward in to the exclusion (detection) zone. After fixing, fluorescent cells in the detection zone were counted using a high content reader. The ability of LPA1 antagonists to inhibit cell migration is quantified by plotting cell number vs. compound concentration and curve fitting the resulting dose-response curve to a 4 parameter logistic function.

LPA/S1P GPCR of interest = biological target: T1, LPA/S1P GPCR of interest (Homo sapiens, UniProt Q92633); test: Beta-Arrestin based assay (PathHunter); format: cell-based
T1 construct: host or cells: CHO
In short: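 EA Parental CHO cells (DiscoverX) were transfected with FuGENE (Roche) using CMV promoter-driven DNA constructs encoding the LPA/S1P GPCR of interest fused to a ProLink tag. Beta-arrestin recruitment in agonist mode was assessed 24-48 hrs later with PathHunter kits. Tests ran in quadruplicate in white 384 well plates, and end point luminescence was fit to a 4 parameter logistic function.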

Chain of LPA1 (Q92633 whole entry): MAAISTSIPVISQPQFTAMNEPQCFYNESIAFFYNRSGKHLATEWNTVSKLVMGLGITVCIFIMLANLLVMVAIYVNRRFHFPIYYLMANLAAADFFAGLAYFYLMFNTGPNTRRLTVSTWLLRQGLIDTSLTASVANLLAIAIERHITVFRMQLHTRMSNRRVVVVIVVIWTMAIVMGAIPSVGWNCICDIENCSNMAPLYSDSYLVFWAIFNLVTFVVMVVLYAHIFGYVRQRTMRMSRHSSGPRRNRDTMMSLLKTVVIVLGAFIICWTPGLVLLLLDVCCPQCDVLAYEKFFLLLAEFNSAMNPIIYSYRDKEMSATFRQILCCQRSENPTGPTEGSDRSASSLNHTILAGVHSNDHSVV
T1 sequence (Q92633 whole entry): as above

Compound	EC50 (LPA1)	EC50 (LPA/S1P GPCR of interest)
CCn1ncc(C#Cc2ccc3cc(C4(C(=O)O)CC4)ccc3c2)c1NC(=O)O[C@H](C)c1ccccc1 [IT016]	50 to 500 nM	
Cc1nsc(C#Cc2cc3sc(C4(C(=O)O)CC4)cc3s2)c1NC(=O)O[C@H](C)c1ccccc1 [IT034]	50 to 500 nM	
Cc1noc(C#Cc2ccc(NC3(C(=O)O)CC3)cc2)c1NC(=O)O[C@H](C)c1ccccc1 [IT006]	50 to 500 nM	50 to 500 nM
CCOC(=O)C1(c2cc3sc(C#Cc4cnn(C)c4NC(=O)O[C@H](C)c4ccccc4)cc3s2)CC1 [IT085]	> 500 nM	
Cc1noc(-c2ccc(-c3ccc4c(c3)CCCC4C(=O)O)cc2)c1NC(=O)O[C@H](C)c1ccccc1 (mixture of isomers) [IT038]	> 500 nM	50 to 500 nM
Cc1nnn(-c2cc(F)c(-c3cc4sc(C5(C(=O)O)CC5)cc4s3)cc2F)c1NC(=O)O[C@H](C)c1ccccc1 [IT067]	> 500 nM	
C[C@@H](OC(=O)Nc1c(-c2ccc(-c3ccc(C4(C(=O)O)CC4)cc3)cc2)nc2ncccn12)c1ccccc1 [IT043]	50 to 500 nM	
C[C@@H](OC(=O)Nc1c(-c2ccc(-c3ccc(C4(C(=O)O)CC4)cc3)cc2)nn2cccnc12)c1ccccc1 [IT052]	> 500 nM	
C[C@@H](OC(=O)Nc1c(-c2ccc(-c3ccc(C4(C(=O)O)CC4)cc3)cc2)sc2ncccc12)c1ccccc1 [IT031]	50 to 500 nM	
C[C@@H](OC(=O)Nc1c(-c2cc(F)c(-c3ccc(C4(C(=O)O)CC4)cc3)cc2F)nn2ccccc12)c1ccccc1 [IT049]	50 to 500 nM	
C[C@@H](OC(=O)Nc1c(-c2cc(F)c(-c3cc4sc(C5(C(=O)O)CC5)cc4s3)cc2F)nnn1C)c1ccccc1 [IT071]	50 to 500 nM	
C[C@@H](OC(=O)Nc1c(-c2ccc(-c3cc4sc(C5(C(=O)O)CC5)cc4s3)cc2)cnn1C)c1ccccc1 [IT056]	50 to 500 nM	
C[C@@H](OC(=O)Nc1c(-c2ccc(-c3ccc(C4(C(=O)O)CC4)cc3)cc2)nc2cnccn12)c1ccccc1 [IT032]	50 to 500 nM	
C[C@@H](OC(=O)Nc1c(-c2cc(F)c(-c3ccc(C4(C(=O)O)CC4)cc3)cc2F)nn2ncccc12)c1ccccc1 [IT061]	50 to 500 nM	
C[C@@H](OC(=O)Nc1c(C#Cc2ccc3cc(C4(C(=O)O)CC4)ccc3c2)nnn1C)c1ccccc1 [IT064]	50 to 500 nM	
C[C@@H](OC(=O)Nc1c(C#Cc2cc3sc(C4(C(=O)O)CC4)cc3s2)oc2ccccc12)c1ccccc1 [IT074]	> 500 nM	
Cc1noc(-c2ccc(-c3ccc4c(c3)NC(=O)CC4C(=O)O)cc2)c1NC(=O)O[C@H](C)c1ccccc1 (some centres unmarked) [IT011]	> 500 nM	

Compound	EC50 (LPA1)	EC50 (LPA/S1P GPCR of interest)
C[C@@H](OC(=O)Nc1c(C#Cc2ccc3cc(C4(C(=O)O)CC4)ccc3c2)sc2ncccc12)c1ccccc1 [IT035]	50 to 500 nM	
Cc1nsc(-c2cc(F)c(-c3ccc(C4(C(=O)O)CCOCC4)cc3)cc2F)c1NC(=O)O[C@H](C)c1ccccc1 [IT042]	50 to 500 nM	
Cc1nsc(-c2ccc(-c3cc4sc(C5(C(=O)O)CC5)cc4s3)cc2)c1NC(=O)O[C@H](C)c1ccccc1 [IT046]	50 to 500 nM	
C[C@@H](OC(=O)Nc1c(-c2cc(F)c(-c3ccc(C4(C(=O)O)CC4)cc3)cc2F)oc2ccccc12)c1ccccc1 [IT075]	50 to 500 nM	
C[C@@H](OC(=O)Nc1c(-c2ccc(-c3cc4sc(C5(C(=O)O)CC5)cc4s3)cc2)nnn1C)c1ccccc1 [IT050]	50 to 500 nM	
C[C@@H](OC(=O)Nc1c(-c2cc(F)c(-c3ccc(C4(C(=O)O)CCOCC4)cc3)cc2F)cnn1C)c1ccccc1 [IT044]	50 to 500 nM	
Cc1noc(C#Cc2cc3sc(C4(C(=O)O)CC4)cc3s2)c1NC(=O)OCc1ccccc1 [IT048]	50 to 500 nM	
C[C@@H](OC(=O)Nc1c(C#Cc2ccc3cc(C4(C(=O)O)CC4)ccc3c2)cnn1C)c1ccccc1 [IT014]	50 to 500 nM	
Cc1noc(C#Cc2ccc3cc(CC4(C(=O)O)CC4)ccc3c2)c1NC(=O)O[C@H](C)c1ccccc1 [IT065]	> 500 nM	
C[C@@H](OC(=O)Nc1c(C#Cc2cc3sc(C4(C(=O)O)CC4)cc3s2)nnn1C)c1ccccc1 [IT069]	50 to 500 nM	
C[C@@H](OC(=O)Nc1c(C#Cc2ccc3cc(C4(C(=O)O)CC4)ccc3c2)cnn1C1CC1)c1ccccc1 [IT015]	50 to 500 nM	
C[C@@H](OC(=O)Nc1c(C2CCC(c3ccc(C4(C(=O)O)CC4)cc3)CC2)cnn1C)c1ccccc1 (some centres unmarked) [IT066]	> 500 nM	
CC(C)OC(=O)C1(c2cc3sc(C#Cc4cnn(C)c4NC(=O)O[C@H](C)c4ccccc4)cc3s2)CC1 [IT086]	> 500 nM	
Cc1noc(-c2ccc(-c3ccc4c(c3)CCCC4C(=O)O)cc2)c1NC(=O)O[C@H](C)c1ccccc1 (mixture of isomers) [IT039]	> 500 nM	
Cc1noc(C#Cc2ccc3cc(C4(CC(=O)O)CC4)ccc3c2)c1NC(=O)O[C@H](C)c1ccccc1 [IT003]	50 to 500 nM	
COCCOC(=O)C1(c2cc3sc(C#Cc4cnn(C)c4NC(=O)O[C@H](C)c4ccccc4)cc3s2)CC1 [IT084]	50 to 500 nM	

The next lines start with the values.

EC50 (LPA1)	EC50 (LPA/S1P GPCR of interest)	Compound
50 to 500 nM		C[C@@H](OC(=O)Nc1c(C#Cc2cc3sc(C4(C(=O)OCC(=O)N(C)C)CC4)cc3s2)cnn1C)c1ccccc1 [IT090]
50 to 500 nM	< 50 nM	C[C@@H](OC(=O)Nc1c(-c2cc3sc(-c4ccc5scc(CC(=O)O)c5c4)cc3s2)nnn1C)c1ccccc1 [IT336]
50 to 500 nM	< 50 nM	Cc1noc(-c2ccc(-c3cc(F)c(OC(C)(C)C(=O)O)c(F)c3)cc2)c1NC(=O)O[C@H](C)c1ccccc1 [IT500]
> 500 nM	50 to 500 nM	Cc1nsc(-c2ccc(-c3ccc(OC(C)(C)C(=O)O)cc3)cc2)c1NC(=O)O[C@H](C)c1ccccc1 [IT509]
50 to 500 nM	< 50 nM	C[C@@H](OC(=O)Nc1c(-c2cc3sc(-c4ccc(C5(C(=O)O)CC5)cc4F)cc3s2)nnn1C)c1ccccc1 [IT246]
50 to 500 nM	< 50 nM	C[C@@H](OC(=O)Nc1c(-c2cc3sc(-c4cc(Cl)c(C5(C(=O)O)CC5)cc4F)cc3s2)nnn1C)c1ccccc1 [IT285]
50 to 500 nM	< 50 nM	C[C@@H](OC(=O)Nc1c(-c2ccc(-c3ccc(Oc4cccc(F)c4C(=O)O)cc3)cc2)cnn1C)c1ccccc1 [IT456]
> 500 nM	> 500 nM	COc1cc(CC(=O)O)ccc1-c1cc2sc(-c3cnn(C)c3NC(=O)O[C@H](C)c3ccccc3)cc2s1 [IT162]
< 50 nM	< 50 nM	C[C@@H](OC(=O)Nc1c(-c2ccc(-c3ccc(Oc4cc(F)ccc4C(=O)O)cc3)cc2)nnn1C)c1ccccc1 [IT468]
> 500 nM	< 50 nM	Cc1nsc(-c2ccc(-c3cc(F)c(Oc4ccncc4C(=O)O)c(F)c3)cc2)c1NC(=O)O[C@H](C)c1ccccc1 [IT439]
> 500 nM	50 to 500 nM	Cc1nsc(-c2ccc(-c3cc(F)c(OC(C)(C)C(=O)O)c(F)c3)cc2)c1NC(=O)O[C@H](C)c1ccccc1 [IT502]
50 to 500 nM	50 to 500 nM	Cc1noc(-c2ccc(-c3ccc(S(C)(=O)=O)nc3)cc2)c1NC(=O)O[C@H](C)c1ccccc1 [IT139]
50 to 500 nM	50 to 500 nM	Cc1noc(-c2ccc(-c3ccc(Oc4nnccc4C(=O)O)cc3)cc2)c1NC(=O)O[C@H](C)c1ccccc1 [IT231]
> 500 nM	> 500 nM	Cc1nsc(-c2cc3sc(-c4ccc(CC(=O)O)s4)cc3s2)c1NC(=O)O[C@H](C)c1ccccc1 [IT148]
50 to 500 nM	< 50 nM	C[C@@H](OC(=O)Nc1c(-c2cc3sc(-c4ccc(C5(C(=O)O)CC5)c(F)c4)cc3s2)nnn1C)c1ccccc1 [IT296]
> 500 nM	50 to 500 nM	Cc1nsc(-c2ccc(NC(=O)c3csc(C4(C(=O)O)CC4)c3)cc2)c1NC(=O)O[C@H](C)c1ccccc1 [IT193]
< 50 nM	< 50 nM	Cc1noc(-c2ccc(-c3ccc(Oc4ccccc4C(=O)O)c(F)c3)cc2)c1NC(=O)O[C@H](C)c1ccccc1 [IT355]
50 to 500 nM	< 50 nM	C[C@@H](OC(=O)Nc1c(-c2cc3sc(-c4ccc(C5(C(=O)O)CC5)c(F)c4F)cc3s2)nnn1C)c1ccccc1 [IT365]
> 500 nM		C[C@@H](OC(=O)N(C)c1c(C#Cc2cc3sc(C4(C(=O)O)CC4)cc3s2)cnn1C)c1ccccc1 [IT097]
> 500 nM		C[C@@H](OC(=O)Nc1c(CCc2cc3sc(C4(C(=O)O)CC4)cc3s2)cnn1C)c1ccccc1 [IT099]
50 to 500 nM		C[C@@H](OC(=O)Nc1c(-c2ccc3cc(C#CC4(C(=O)O)CC4)ccc3c2)nnn1C)c1ccccc1 [IT146]
50 to 500 nM		COc1ccccc1OC(=O)C1(c2cc3sc(C#Cc4cnn(C)c4NC(=O)O[C@H](C)c4ccccc4)cc3s2)CC1 [IT088]
